Assay results: PubChem BioAssay (NCI)
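96-well plates; 48 h exposure; 5 concentrations. Endpoints by linear interpolation between flanking doses. Not reached: highest tested concentration assigned. GI50 is the concentration that inhibits growth by half. TGI: concentration producing complete growth inhibition.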

Assays:
Experiment in all cases: NCI tumour cell line growth inhibition, 48 h
786-0 renal = tested on: 786-0 renal
A498 renal = tested on: A498 renal
A549 NSCLC = tested on: A549 NSCLC
ACHN renal = tested on: ACHN renal
BT-549 breast = tested on: BT-549 breast
CAKI-1 renal = tested on: CAKI-1 renal
CCRF-CEM leukemia = tested on: CCRF-CEM leukemia
DU-145 prostate = tested on: DU-145 prostate
EKVX NSCLC = tested on: EKVX NSCLC
HCC-2998 colon = tested on: HCC-2998 colon
HCT-116 colon = tested on: HCT-116 colon
HCT-15 colon = tested on: HCT-15 colon
HL-60(TB) leukemia = tested on: HL-60(TB) leukemia
HOP-92 NSCLC = tested on: HOP-92 NSCLC
HS 578T breast = tested on: HS 578T breast
IGROV1 ovarian = tested on: IGROV1 ovarian
K-562 leukemia = tested on: K-562 leukemia
KM12 colon = tested on: KM12 colon
M14 melanoma = tested on: M14 melanoma
MCF7 breast = tested on: MCF7 breast
MDA-MB-231 breast = tested on: MDA-MB-231 breast
MDA-MB-435 = tested on: MDA-MB-435
MOLT-4 leukemia = tested on: MOLT-4 leukemia
NCI-H226 lung = tested on: NCI-H226 lung
NCI-H23 lung = tested on: NCI-H23 lung
NCI-H460 lung = tested on: NCI-H460 lung
NCI-H522 lung = tested on: NCI-H522 lung
NCI/ADR-RES ovarian = tested on: NCI/ADR-RES ovarian
OVCAR-3 ovarian = tested on: OVCAR-3 ovarian
OVCAR-5 ovarian = tested on: OVCAR-5 ovarian
OVCAR-8 ovarian = tested on: OVCAR-8 ovarian
PC-3 prostate = tested on: PC-3 prostate
RPMI-8226 leukemia = tested on: RPMI-8226 leukemia
RXF 393 renal = tested on: RXF 393 renal
SF-268 CNS = tested on: SF-268 CNS
SF-295 CNS = tested on: SF-295 CNS
SF-539 CNS = tested on: SF-539 CNS
SK-MEL-2 melanoma = tested on: SK-MEL-2 melanoma
SK-MEL-5 melanoma = tested on: SK-MEL-5 melanoma
SN12C renal = tested on: SN12C renal
SR leukemia = tested on: SR leukemia
SW-620 colon = tested on: SW-620 colon
TK-10 renal = tested on: TK-10 renal
UACC-257 melanoma = tested on: UACC-257 melanoma
UACC-62 melanoma = tested on: UACC-62 melanoma
UO-31 renal = tested on: UO-31 renal
COLO 205 colon = tested on: COLO 205 colon
HOP-62 NSCLC = tested on: HOP-62 NSCLC
HT29 colon = tested on: HT29 colon
LOX IMVI melanoma = tested on: LOX IMVI melanoma
MALME-3M melanoma = tested on: MALME-3M melanoma
SK-MEL-28 melanoma = tested on: SK-MEL-28 melanoma
SK-OV-3 ovarian = tested on: SK-OV-3 ovarian
SNB-19 CNS = tested on: SNB-19 CNS
SNB-75 CNS = tested on: SNB-75 CNS
T-47D breast = tested on: T-47D breast
U251 CNS = tested on: U251 CNS

OCC#CCOCC#Cc1ccccc1C#CCOCC#CCO
GI50 (786-0 renal): 34 µM | TGI (786-0 renal): > 100 µM | GI50 (A498 renal): 58.7 µM | TGI (A498 renal): > 100 µM | GI50 (A549 NSCLC): 50.9 µM | TGI (A549 NSCLC): > 100 µM | GI50 (ACHN renal): 27.8 µM | TGI (ACHN renal): 85.8 µM | GI50 (BT-549 breast): 34.2 µM | TGI (BT-549 breast): 93.2 µM | GI50 (CAKI-1 renal): 82.8 µM | TGI (CAKI-1 renal): > 100 µM | GI50 (CCRF-CEM leukemia): 18.5 µM | TGI (CCRF-CEM leukemia): 57.1 µM | GI50 (DU-145 prostate): 48.4 µM | TGI (DU-145 prostate): > 100 µM | GI50 (EKVX NSCLC): 41.3 µM | TGI (EKVX NSCLC): > 100 µM | GI50 (HCC-2998 colon): 29 µM | TGI (HCC-2998 colon): 75.3 µM | GI50 (HCT-116 colon): 16.6 µM | TGI (HCT-116 colon): 44 µM | GI50 (HCT-15 colon): 20.9 µM | TGI (HCT-15 colon): > 100 µM | GI50 (HL-60(TB) leukemia): 47.4 µM | TGI (HL-60(TB) leukemia): > 100 µM | GI50 (HOP-92 NSCLC): 21.8 µM | TGI (HOP-92 NSCLC): > 100 µM | GI50 (HS 578T breast): > 100 µM | TGI (HS 578T breast): > 100 µM | GI50 (IGROV1 ovarian): > 100 µM | TGI (IGROV1 ovarian): > 100 µM | GI50 (K-562 leukemia): 27 µM | TGI (K-562 leukemia): 90 µM | GI50 (KM12 colon): 35.1 µM | TGI (KM12 colon): > 100 µM | GI50 (M14 melanoma): 20.2 µM | TGI (M14 melanoma): 49.9 µM | GI50 (MCF7 breast): 40.7 µM | TGI (MCF7 breast): > 100 µM | GI50 (MDA-MB-231 breast): 30.2 µM | TGI (MDA-MB-231 breast): 83.4 µM | GI50 (MDA-MB-435): 53.3 µM | TGI (MDA-MB-435): > 100 µM | GI50 (MOLT-4 leukemia): 44.8 µM | TGI (MOLT-4 leukemia): > 100 µM | GI50 (NCI-H226 lung): 41.4 µM | TGI (NCI-H226 lung): > 100 µM | GI50 (NCI-H23 lung): 36 µM | TGI (NCI-H23 lung): > 100 µM | GI50 (NCI-H460 lung): 48.6 µM | TGI (NCI-H460 lung): > 100 µM | GI50 (NCI-H522 lung): 66.5 µM | TGI (NCI-H522 lung): > 100 µM | GI50 (NCI/ADR-RES ovarian): 46.6 µM | TGI (NCI/ADR-RES ovarian): > 100 µM | GI50 (OVCAR-3 ovarian): 38.1 µM | TGI (OVCAR-3 ovarian): > 100 µM | GI50 (OVCAR-5 ovarian): > 100 µM | TGI (OVCAR-5 ovarian): > 100 µM | GI50 (OVCAR-8 ovarian): 43.8 µM | TGI (OVCAR-8 ovarian): > 100 µM | GI50 (PC-3 prostate): 22.5 µM | TGI (PC-3 prostate): > 100 µM | GI50 (RPMI-8226 leukemia): 13.7 µM | TGI (RPMI-8226 leukemia): 35.3 µM | GI50 (RXF 393 renal): 28.8 µM | TGI (RXF 393 renal): 82.4 µM | GI50 (SF-268 CNS): 36.9 µM | TGI (SF-268 CNS): > 100 µM | GI50 (SF-295 CNS): > 100 µM | TGI (SF-295 CNS): > 100 µM | GI50 (SF-539 CNS): 47.4 µM | TGI (SF-539 CNS): > 100 µM | GI50 (SK-MEL-2 melanoma): > 100 µM | TGI (SK-MEL-2 melanoma): > 100 µM | GI50 (SK-MEL-5 melanoma): 39.8 µM | TGI (SK-MEL-5 melanoma): > 100 µM | GI50 (SN12C renal): 26.7 µM | TGI (SN12C renal): 80.9 µM | GI50 (SR leukemia): 18.5 µM | TGI (SR leukemia): > 100 µM | GI50 (SW-620 colon): 58.9 µM | TGI (SW-620 colon): > 100 µM | GI50 (TK-10 renal): 24.4 µM | TGI (TK-10 renal): 68.8 µM | GI50 (UACC-257 melanoma): 35.5 µM | TGI (UACC-257 melanoma): > 100 µM | GI50 (UACC-62 melanoma): 25.8 µM | TGI (UACC-62 melanoma): 75.1 µM | GI50 (UO-31 renal): > 100 µM | TGI (UO-31 renal): > 100 µM

O=C1Cc2c(-c3ccccc3)cc(-c3ccccc3)nc2-c2ccccc2N1
GI50 (786-0 renal): 4.14 µM | TGI (786-0 renal): 72.5 µM | TGI (A498 renal): 59.2 µM | TGI (A549 NSCLC): 26.6 µM | GI50 (ACHN renal): 4.04 µM | TGI (ACHN renal): 19 µM | TGI (BT-549 breast): 22.5 µM | TGI (CAKI-1 renal): 19.9 µM | TGI (CCRF-CEM leukemia): > 100 µM | TGI (COLO 205 colon): 63.7 µM | TGI (DU-145 prostate): 20.3 µM | TGI (EKVX NSCLC): 80.3 µM | TGI (HCC-2998 colon): 11.5 µM | TGI (HCT-116 colon): 5.37 µM | TGI (HCT-15 colon): 4.4 µM | TGI (HL-60(TB) leukemia): > 100 µM | TGI (HOP-62 NSCLC): 7.73 µM | TGI (HOP-92 NSCLC): > 100 µM | TGI (HS 578T breast): 19 µM | TGI (HT29 colon): 28 µM | TGI (IGROV1 ovarian): 68.5 µM | TGI (K-562 leukemia): > 100 µM | TGI (KM12 colon): > 100 µM | TGI (LOX IMVI melanoma): > 100 µM | TGI (M14 melanoma): 17.5 µM | TGI (MALME-3M melanoma): > 100 µM | TGI (MDA-MB-231 breast): 17.2 µM | TGI (MDA-MB-435): > 100 µM | TGI (NCI-H226 lung): 46.9 µM | TGI (NCI-H23 lung): 36.6 µM | TGI (NCI-H460 lung): 29.6 µM | TGI (NCI-H522 lung): 30.2 µM | TGI (NCI/ADR-RES ovarian): 18.6 µM | TGI (OVCAR-3 ovarian): 21.4 µM | TGI (OVCAR-5 ovarian): 21.2 µM | TGI (OVCAR-8 ovarian): 21 µM | TGI (PC-3 prostate): 42.9 µM | TGI (RPMI-8226 leukemia): > 100 µM | TGI (RXF 393 renal): > 100 µM | TGI (SF-268 CNS): 19.3 µM | TGI (SF-295 CNS): 10.7 µM | TGI (SF-539 CNS): 34.4 µM | TGI (SK-MEL-2 melanoma): 7.27 µM | TGI (SK-MEL-28 melanoma): 83.7 µM | TGI (SK-MEL-5 melanoma): 7.58 µM | TGI (SK-OV-3 ovarian): 18.9 µM | TGI (SN12C renal): 30.8 µM | TGI (SNB-19 CNS): 8.76 µM | TGI (SNB-75 CNS): 7.71 µM | TGI (SW-620 colon): 82.5 µM | TGI (T-47D breast): 38.4 µM | GI50 (TK-10 renal): 2.48 µM | TGI (TK-10 renal): 5.68 µM | TGI (U251 CNS): 20 µM | TGI (UACC-257 melanoma): > 100 µM | TGI (UACC-62 melanoma): 25.7 µM | TGI (UO-31 renal): 11.4 µM
